Measurements published in patent publication US12173007B2, “Imidazopyridazine IL-17 inhibitor compounds” (Janssen Pharmaceutica NV, priority 2021, dated 2024).

Assays:
[1] = target: IL-17A(FLAG-Tagged): IL-17RA(His-Tagged) binding (Homo sapiens, UniProt Q16552, K93Q); test: IL-17A(FLAG-tagged):IL-17RA(His-tagged) binding disruption Eu-HTRF assay, Protocol 2; settings: FLAG-IL-17A 1 nM; average if tested more than once
Text: IL-17A(FLAG-Tagged): IL-17RA(His-Tagged) Binding Disruption Eu-HTRF Assay
An antibody directed against the FLAG tag of IL-17A (SEQ ID NO: 1) is labeled with the HTRF donor chromophore (Europium-cryptate). IL-17A is present as a dimer that is “locked into” this quaternary structure due to the formation of loop-spanning […] disulfide bridges. The construct of IL-17RA used in the assay excludes the […] portion of the receptor and is fused to a C-terminal 10×His tag (SEQ ID NO:2). An antibody directed against the His tag of the IL-17RA chimera is labeled with the HTRF acceptor chromophore (“D2”). The fluorescence-resonance energy transfer (FRET) depends on the vicinity of the donor chromophore to the acceptor, and interruption of the binding between the IL-17A and IL-17RA causes the reduction/loss of FRET. Therefore, this assay allows to evaluate the compound effect on the binding IL-17A and IL-17RA by monitoring the fluorescence intensity of donor vs acceptor. The assay was run using either Protocol 1 or Protocol 2 as described below.
Protocol 2. 40 nl of 2-fold serial diluted compound solution for total 22 dilution points is added into each well of a 1536-well, white, low-volume, non-binding plate (Greiner #782904), then 2 μl of FLAG tagged IL-17A at 2×final concentration (1 nM) in solution of PBS+0.01% Triton-X100 is added to each well. The assay plate is briefly centrifuged then incubated for 1 h at rt. A mixed solution is prepared containing 2×5 nM 10HIS×IL-17RA, 2×2.5 nM Eu-anti-FLAG (CISBIO), 2×5 nM D2-anti-HIS (CISBIO) in PBS+0.01% Triton-X100+200 mM Potassium Fluoride (Sigma 60238) and 2 μl of mix is added to each well of the assay plate. The plate is briefly centrifuged then incubated for 2 h at rt. The HTRF intensities at the wavelength of donor (615 nm) and acceptor (665 nm) are measured using BMG Pherastar. The ratio between intensities at two wavelengths is calculated and plotted against the compound concentration and the data is fitted to a one-site competition model to yield IC50 of the compound.

[2] = system: IL-17A-induced G-CSF production in human normal keratinocyte (NHK); test: NHK assay: IL-17A-induced G-CSF production in normal human keratinocytes; type: cell-based; settings: Homo sapiens, Keratinocyte, 24 h, IL-17A 5 ng/mL, G-CSF by HTRF, average if tested more than once
Method: IL-17A acts directly on keratinocytes through binding to dimeric receptor IL-17RA/RC and drives the production of a number of inflammatory mediators known to be elevated in psoriasis lesional tissue. IL-17A small molecule inhibitors that block the IL-17A to interact with IL-17R would inhibit the IL-17A signaling in its targeted cells such as keratinocytes. The compound functional activity is evaluated for its impact on IL-17A-induced G-CSF production in human normal keratinocyte (NHK).
Adult normal human keratinocytes are cultured in keratinocyte growth medium (Lonza) in a flask till reaching ˜90% confluence, then cells are transferred to a 384-well plate at density of 3000-4000 cell/well. Recombinant human IL-17A (Gibco PHC9174) is pre-incubated with titrated compound or DMSO for 1 h at rt then added to the cell culture plate. The final concentration of IL-17A is 5 ng/mL and DMSO is 0.2%, in the culture containing 5% FBS. Cells are cultured/treated for 24 h at 37° C. Supernatants are collected and G-CSF production is measured through HTRF technology using Human G-CSF Kit (CisBio). G-CSF concentration was extrapolated from the standard curve and IC50 is determined using GraphPad Prism. Cell viability is also evaluated using CellTiter-Glo kit (Promega) and effect of compound on cell viability is compared to DMSO control.

Chain of UniProt Q16552 (Q16552 with tags, fused parts or gaps K93Q): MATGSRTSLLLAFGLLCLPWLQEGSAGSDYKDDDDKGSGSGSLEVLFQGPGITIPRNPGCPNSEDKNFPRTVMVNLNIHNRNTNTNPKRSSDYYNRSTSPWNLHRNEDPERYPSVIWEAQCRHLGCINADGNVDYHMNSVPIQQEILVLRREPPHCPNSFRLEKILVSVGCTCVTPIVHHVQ

| SMILES | IC50 [1] [nM] | IC50 [2] [nM] |
| --- | --- | --- |
| COC[C@H](c1cnn2cc([C@@H](NC(=O)c3nonc3C3CC3)[C@@H](C)OC3CC3)nc2c1)N1CC(F)(F)CNC1=O (relative stereo) [Example 54, N-((1R*,2R*)-2-Cyclopropoxy-1-(7-((S)-1-(5,5-difluoro-2-oxotetrahydropyrimidin-1(2H)-yl)-2-methoxyethyl)imidazo[1,2-b]pyridazin-2-yl)propyl)-4-cyclopropyl-1,2,5-oxadiazole-3-carboxamide] | < 50 | 50 to 100 |
| COC[C@H](c1cnn2cc([C@@H](NC(=O)c3nonc3C3CC3)[C@H](C)OC3CC3)nc2c1)N1CC(F)(F)CNC1=O (relative stereo) [Example 55, N-((1R*,2S*)-2-cyclopropoxy-1-(7-((S)-1-(5,5-difluoro-2-oxotetrahydropyrimidin-1(2H)-yl)-2-methoxyethyl)imidazo[1,2-b]pyridazin-2-yl)propyl)-4-cyclopropyl-1,2,5-oxadiazole-3-carboxamide] | > 100 | > 100 |
| COC[C@H](c1cnn2cc([C@@H](NC(=O)c3nonc3C)[C@H](C)OC(C)(C)C(F)(F)F)nc2c1)N1CC(F)(F)CNC1=O (relative stereo) [Example 61, N-((1R*,2S*)-1-(7-((S)-1-(5,5-Difluoro-2-oxotetrahydropyrimidin-1(2H)-yl)-2-methoxyethyl)imidazo[1,2-b]pyridazin-2-yl)-2-((1,1,1-trifluoro-2-methylpropan-2-yl)oxy)propyl)-4-methyl-1,2,5-oxadiazole-3-carboxamide] | > 100 | > 100 |
| COC[C@H](c1cnn2cc([C@@H](NC(=O)c3nonc3C3CC3)[C@@H](C)OC3(C(F)(F)F)CC3)nc2c1)N1CC(F)(F)CNC1=O (relative stereo) [Example 90, 4-Cyclopropyl-N-((1R*,2R*)-1-(7-((S)-1-(5,5-difluoro-2-oxotetrahydropyrimidin-1(2H)-yl)-2-methoxyethyl)imidazo[1,2-b]pyridazin-2-yl)-2-(1-(trifluoromethyl)cyclopropoxy)propyl)-1,2,5-oxadiazole-3-carboxamide] | < 50 | < 50 |
| COC[C@H](c1cnn2cc([C@@H](NC(=O)c3nonc3C3CC3)[C@H](C)OC3(C(F)(F)F)CC3)nc2c1)N1CC(F)(F)CNC1=O (relative stereo) [Example 91, 4-Cyclopropyl-N-((1R*,2S*)-1-(7-((S)-1-(5,5-difluoro-2-oxotetrahydropyrimidin-1(2H)-yl)-2-methoxyethyl)imidazo[1,2-b]pyridazin-2-yl)-2-(1-(trifluoromethyl)cyclopropoxy)propyl)-1,2,5-oxadiazole-3-carboxamide] | 50 to 100 | > 100 |
| COc1nonc1C(=O)N[C@@H](CCC(C)(C)C(F)(F)F)c1cn2ncc(CN3C[C@@H]4[C@H](CNC3=O)C4(F)F)cc2n1 (relative stereo) [Example 116, N—((S)-1-(7-(((1S*,7R*)-8,8-Difluoro-4-oxo-3,5-diazabicyclo[5.1.0]octan-3-yl)methyl)imidazo[1,2-b]pyridazin-2-yl)-5,5,5-trifluoro-4,4-dimethylpentyl)-4-methoxy-1,2,5-oxadiazole-3-carboxamide] | 50 to 100 | > 100 |
| COC[C@H](c1cnn2cc([C@@H](NC(=O)c3nonc3C)[C@@H](C)O[C@H](C)C(F)(F)F)nc2c1)N1CC(F)(F)CNC1=O [Example 53, N-((1R,2R)-1-(7-((S)-1-(5,5-Difluoro-2-oxotetrahydropyrimidin-1(2H)-yl)-2-methoxyethyl)imidazo[1,2-b]pyridazin-2-yl)-2-(((R)-1,1,1-trifluoropropan-2-yl)oxy)propyl)-4-methyl-1,2,5-oxadiazole-3-carboxamide] | – | < 50 |
| Cc1nonc1C(=O)N[C@@H](COC(C)(C)C(F)(F)F)c1cn2ncc([C@@H](C3CC3)N3CC(F)(F)CNC3=O)cc2n1 [Example 62, N—((R)-1-(7-((R)-Cyclopropyl(5,5-difluoro-2-oxotetrahydropyrimidin-1(2H)-yl)methyl)imidazo[1,2-b]pyridazin-2-yl)-2-((1,1,1-trifluoro-2-methylpropan-2-yl)oxy)ethyl)-4-methyl-1,2,5-oxadiazole-3-carboxamide] | – | 50 to 100 |
| C[C@H](c1cnn2cc([C@@H](NC(=O)c3nonc3C3CC3)C3CCC(F)(F)CC3)nc2c1)N1CC(F)(F)CNC1=O [Example 63, 4-Cyclopropyl-N—((S)-(7-((R)-1-(5,5-difluoro-2-oxotetrahydropyrimidin-1(2H)-yl)ethyl)imidazo[1,2-b]pyridazin-2-yl)(4,4-difluorocyclohexyl)methyl)-1,2,5-oxadiazole-3-carboxamide] | – | < 50 |
| COC[C@H](c1cnn2cc([C@H](COC(C)(C)C(F)(F)F)NC(=O)c3nonc3C3CC3)nc2c1)N1CC(F)(F)CNC1=O [Example 64, 4-Cyclopropyl-N—((R)-1-(7-((S)-1-(5,5-difluoro-2-oxotetrahydropyrimidin-1(2H)-yl)-2-methoxyethyl)imidazo[1,2-b]pyridazin-2-yl)-2-((1,1,1-trifluoro-2-methylpropan-2-yl)oxy)ethyl)-1,2,5-oxadiazole-3-carboxamide] | – | < 50 |
| COC[C@H](c1cnn2cc([C@H](COC(C)(C)C(F)(F)F)NC(=O)c3ccnn3C(C)C)nc2c1)N1CC(F)(F)CNC1=O [Example 65, N—((R)-1-(7-((S)-1-(5,5-Difluoro-2-oxotetrahydropyrimidin-1(2H)-yl)-2-methoxyethyl)imidazo[1,2-b]pyridazin-2-yl)-2-((1,1,1-trifluoro-2-methylpropan-2-yl)oxy)ethyl)-1-isopropyl-1H-pyrazole-5-carboxamide] | – | < 50 |
| COC[C@H](c1cnn2cc([C@H](CC(C)(C)C(F)(F)F)NC(=O)c3nonc3C)nc2c1)N1CC(F)(F)CNC1=O [Example 66, N—((S)-1-(7-((S)-1-(5,5-Difluoro-2-oxotetrahydropyrimidin-1(2H)-yl)-2-methoxyethyl)imidazo[1,2-b]pyridazin-2-yl)-4,4,4-trifluoro-3,3-dimethylbutyl)-4-methyl-1,2,5-oxadiazole-3-carboxamide] | – | 50 to 100 |
| COC[C@H](c1cnn2cc([C@@H](CCC(C)(C)C(F)(F)F)NC(=O)c3nonc3C)nc2c1)N1CC(F)(F)CNC1=O [Example 67, N—((R)-1-(7-((S)-1-(5,5-Difluoro-2-oxotetrahydropyrimidin-1(2H)-yl)-2-methoxyethyl)imidazo[1,2-b]pyridazin-2-yl)-5,5,5-trifluoro-4,4-dimethylpentyl)-4-methyl-1,2,5-oxadiazole-3-carboxamide] | – | > 100 |
| C[C@H](c1cnn2cc([C@H](COC(C)(C)C(F)(F)F)NC(=O)c3nonc3C3CC3)nc2c1)N1CC(F)(F)CNC1=O [Example 87, 4-Cyclopropyl-N—((R)-1-(7-((R)-1-(5,5-difluoro-2-oxotetrahydropyrimidin-1(2H)-yl)ethyl)imidazo[1,2-b]pyridazin-2-yl)-2-((1,1,1-trifluoro-2-methylpropan-2-yl)oxy)ethyl)-1,2,5-oxadiazole-3-carboxamide] | – | < 50 |
| C[C@H](c1cnn2cc([C@H](CC(C)(C)C(F)(F)F)NC(=O)c3nonc3C3CC3)nc2c1)N1CC(F)(F)CNC1=O [Example 88, 4-Cyclopropyl-N—((S)-1-(7-((R)-1-(5,5-difluoro-2-oxotetrahydropyrimidin-1(2H)-yl)ethyl)imidazo[1,2-b]pyridazin-2-yl)-4,4,4-trifluoro-3,3-dimethylbutyl)-1,2,5-oxadiazole-3-carboxamide] | – | < 50 |
